In one experiment the target is SMARCA4 (Homo sapiens (Human), UniProt P51532). The experiment in a line: SMARCA4 HiBiT degradation assay in HeLa cells. The experiment is classed as cell-based. Particulars: 18 hours; for DC50: read-out: DC50 (SM4-HeLa) SMARCA4 degradation potency; for Dmax: HeLa, read-out: Dmax % (SM4-HeLa) maximum SMARCA4 degradation within the concentrations tested. The procedure, abridged:
(§1)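 HeLa monoclonal lines carrying a heterozygous HiBiT knock-in on SMARCA2 or SMARCA4 were seeded at 2500 cells/well in EMEM with 10% FBS. After 18 h compound exposure at 37 °C, Nano-Glo HiBiT lytic detection ran 30-60 min at RT before the luminescence read. Values are from curve fits.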

In the next experiment the target is SMARCA2 (Homo sapiens (Human), UniProt P51531). The experiment is described as follows: SMARCA2 HiBiT degradation assay in HeLa cells. The experiment is classed as cell-based. Particulars: 18 hours; for DC50: read-out: DC50 (SM2-HeLa) SMARCA2 degradation potency; for Dmax: read-out: Dmax % (SM2-HeLa) maximum SMARCA2 degradation within the concentrations tested. Summed up: as §1
On the technique in general: With HiBiT, luminescence reflects the tagged protein that the partner subunit can reach.

In general, DC50 refers to the midpoint of the concentration-degradation curve.

Structures are written as SMILES.

Sequence of SMARCA2 (P51531 whole entry): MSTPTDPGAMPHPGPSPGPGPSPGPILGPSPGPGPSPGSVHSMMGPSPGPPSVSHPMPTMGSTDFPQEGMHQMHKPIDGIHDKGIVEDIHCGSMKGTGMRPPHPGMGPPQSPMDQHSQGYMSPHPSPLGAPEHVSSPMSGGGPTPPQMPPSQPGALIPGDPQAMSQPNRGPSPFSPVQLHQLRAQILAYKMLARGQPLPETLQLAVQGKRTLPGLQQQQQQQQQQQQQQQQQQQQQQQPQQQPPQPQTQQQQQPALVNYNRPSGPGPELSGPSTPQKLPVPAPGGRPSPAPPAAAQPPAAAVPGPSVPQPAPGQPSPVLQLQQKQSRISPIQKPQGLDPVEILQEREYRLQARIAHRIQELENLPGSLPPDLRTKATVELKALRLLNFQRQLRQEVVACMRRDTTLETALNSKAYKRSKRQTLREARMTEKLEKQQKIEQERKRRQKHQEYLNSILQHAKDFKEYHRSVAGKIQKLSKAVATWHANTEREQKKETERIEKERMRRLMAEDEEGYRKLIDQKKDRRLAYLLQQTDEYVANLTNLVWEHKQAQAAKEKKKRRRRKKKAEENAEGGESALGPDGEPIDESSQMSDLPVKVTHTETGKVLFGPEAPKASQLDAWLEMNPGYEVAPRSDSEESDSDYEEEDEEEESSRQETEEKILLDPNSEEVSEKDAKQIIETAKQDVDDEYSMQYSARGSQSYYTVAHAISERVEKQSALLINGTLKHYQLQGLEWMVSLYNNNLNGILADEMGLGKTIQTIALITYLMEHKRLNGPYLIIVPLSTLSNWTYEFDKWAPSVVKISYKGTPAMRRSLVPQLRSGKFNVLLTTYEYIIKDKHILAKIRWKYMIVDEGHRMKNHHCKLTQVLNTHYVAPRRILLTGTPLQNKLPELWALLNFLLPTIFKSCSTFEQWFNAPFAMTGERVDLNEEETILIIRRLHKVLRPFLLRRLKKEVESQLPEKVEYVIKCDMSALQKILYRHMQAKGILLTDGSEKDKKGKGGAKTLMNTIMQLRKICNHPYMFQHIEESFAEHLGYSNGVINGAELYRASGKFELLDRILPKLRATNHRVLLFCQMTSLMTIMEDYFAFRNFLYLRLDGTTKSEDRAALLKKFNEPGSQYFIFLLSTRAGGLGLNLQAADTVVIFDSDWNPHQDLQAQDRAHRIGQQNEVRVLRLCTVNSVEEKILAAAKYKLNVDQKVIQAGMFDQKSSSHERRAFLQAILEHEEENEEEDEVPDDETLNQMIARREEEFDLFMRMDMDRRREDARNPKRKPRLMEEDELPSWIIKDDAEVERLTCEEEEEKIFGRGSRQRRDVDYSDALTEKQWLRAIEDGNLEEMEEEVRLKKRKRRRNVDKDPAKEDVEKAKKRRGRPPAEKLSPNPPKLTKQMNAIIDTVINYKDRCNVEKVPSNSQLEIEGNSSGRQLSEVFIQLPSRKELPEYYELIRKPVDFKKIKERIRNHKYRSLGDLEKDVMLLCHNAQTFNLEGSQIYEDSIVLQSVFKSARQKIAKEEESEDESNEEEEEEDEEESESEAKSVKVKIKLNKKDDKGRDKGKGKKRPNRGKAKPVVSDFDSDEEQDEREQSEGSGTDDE
Sequence of SMARCA4 (P51532 whole entry): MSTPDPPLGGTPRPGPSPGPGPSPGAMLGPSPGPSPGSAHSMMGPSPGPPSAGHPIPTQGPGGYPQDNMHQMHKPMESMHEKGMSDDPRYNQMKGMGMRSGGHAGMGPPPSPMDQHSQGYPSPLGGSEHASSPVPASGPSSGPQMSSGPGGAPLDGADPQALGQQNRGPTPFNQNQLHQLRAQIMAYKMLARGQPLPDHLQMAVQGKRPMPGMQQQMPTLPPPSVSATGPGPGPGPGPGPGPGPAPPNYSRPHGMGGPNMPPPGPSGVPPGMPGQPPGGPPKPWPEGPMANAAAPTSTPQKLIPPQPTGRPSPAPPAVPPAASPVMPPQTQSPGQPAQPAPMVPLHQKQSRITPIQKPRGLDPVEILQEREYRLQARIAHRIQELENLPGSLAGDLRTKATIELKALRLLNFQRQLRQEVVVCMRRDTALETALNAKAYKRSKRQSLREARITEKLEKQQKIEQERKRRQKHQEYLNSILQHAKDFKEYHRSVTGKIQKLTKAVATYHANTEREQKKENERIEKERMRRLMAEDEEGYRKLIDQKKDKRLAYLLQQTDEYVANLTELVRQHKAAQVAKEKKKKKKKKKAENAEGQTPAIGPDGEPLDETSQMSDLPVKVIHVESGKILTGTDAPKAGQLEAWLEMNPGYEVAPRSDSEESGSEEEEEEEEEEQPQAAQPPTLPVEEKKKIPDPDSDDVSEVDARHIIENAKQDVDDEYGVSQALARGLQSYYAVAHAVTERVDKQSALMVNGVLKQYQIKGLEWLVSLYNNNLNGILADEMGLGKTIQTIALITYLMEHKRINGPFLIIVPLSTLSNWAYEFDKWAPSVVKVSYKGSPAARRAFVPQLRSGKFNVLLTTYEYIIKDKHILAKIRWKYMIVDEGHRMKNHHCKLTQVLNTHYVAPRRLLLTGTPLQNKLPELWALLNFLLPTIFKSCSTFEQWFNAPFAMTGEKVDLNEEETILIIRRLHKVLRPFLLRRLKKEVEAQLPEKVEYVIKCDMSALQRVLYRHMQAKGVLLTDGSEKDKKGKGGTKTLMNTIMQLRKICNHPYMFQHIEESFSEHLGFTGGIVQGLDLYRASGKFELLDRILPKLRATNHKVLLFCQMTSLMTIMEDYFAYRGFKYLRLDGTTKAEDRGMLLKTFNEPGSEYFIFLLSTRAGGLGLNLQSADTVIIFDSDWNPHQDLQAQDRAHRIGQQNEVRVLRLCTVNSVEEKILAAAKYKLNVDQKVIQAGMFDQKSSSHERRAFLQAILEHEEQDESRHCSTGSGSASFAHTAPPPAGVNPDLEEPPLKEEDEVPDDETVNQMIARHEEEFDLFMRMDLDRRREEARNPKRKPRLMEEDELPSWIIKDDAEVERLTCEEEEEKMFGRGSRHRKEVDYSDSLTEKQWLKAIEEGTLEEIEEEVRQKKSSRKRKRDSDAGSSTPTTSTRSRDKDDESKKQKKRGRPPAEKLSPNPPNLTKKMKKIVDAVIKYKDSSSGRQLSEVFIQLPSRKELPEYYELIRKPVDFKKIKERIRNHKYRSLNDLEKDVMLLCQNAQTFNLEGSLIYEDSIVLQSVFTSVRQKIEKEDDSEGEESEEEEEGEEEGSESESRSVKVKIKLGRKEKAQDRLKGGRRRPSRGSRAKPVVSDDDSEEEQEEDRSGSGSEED

As to `CCC(CN1CCC(N2CCN3c4cc(-c5ccccc5O)nnc4NC[C@H]3C2)CC1)Oc1cc([C@H](C(=O)N2C[C@H](O)C[C@H]2C(=O)N[C@@H](C)c2ccc(-c3scnc3C)cc2)C(C)C)on1` (stereo partly drawn) [Example 60, (2S,4R)-4-hydroxy-1-(2-(3-((1-(4-((S)-2-(2-hydroxyphenyl)-5,6,6a,7,9,10-hexahydro-8H-pyrazino[1′,2′:4,5]pyrazino[2,3-c]pyridazin-8-yl)piperidin-1-yl)butan-2-yl)oxy)isoxazol-5-yl)-3-methylbutanoyl)-N-((S)-1-(4-(4-methylthiazol-5-yl)phenyl)ethyl)pyrrolidine-2-carboxamide], the DC50 at SMARCA4 and on SMARCA2 was < 100 nM each time. The Dmax was 50 to 75% at SMARCA4 and > 75% at SMARCA2.
For the compound `CCC(CN1CCC(N2CCN3c4cc(-c5ccccc5O)nnc4NC[C@H]3C2)C1)Oc1cc(C(C(=O)N2C[C@H](O)C[C@H]2C(=O)N[C@@H](C)c2ccc(-c3scnc3C)cc2)C(C)C)on1` (stereo partly drawn) [Example 61, (2S,4R)-4-hydroxy-1-(2-(3-((1-(3-((S)-2-(2-hydroxyphenyl)-5,6,6a,7,9,10-hexahydro-8H-pyrazino[1′,2′:4,5]pyrazino[2,3-c]pyridazin-8-yl)pyrrolidin-1-yl)butan-2-yl)oxy)isoxazol-5-yl)-3-methylbutanoyl)-N-((S)-1-(4-(4-methylthiazol-5-yl)phenyl)ethyl)pyrrolidine-2-carboxamide], at SMARCA4, the “Dmax % (SM4-HeLa) maximum SMARCA4 degradation within the concentrations tested” value was “B (B = 50%< Dmax <=75%)” and the DC50 is < 100 nM. Besides, on SMARCA2, the DC50 is < 100 nM and the Dmax was > 75%.
For the compound `CCC(CN1CCC(N2CCN3c4cc(-c5ccccc5O)nnc4NC[C@H]3C2)C1)Oc1cc(C(C(=O)N2C[C@H](O)C[C@H]2C(=O)N[C@@H](C)c2ccc(-c3scnc3C)cc2)C(C)C)on1` (stereo partly drawn) [Example 62, (2S,4R)-4-hydroxy-1-(2-(3-((1-(3-((S)-2-(2-hydroxyphenyl)-5,6,6a,7,9,10-hexahydro-8H-pyrazino[1′,2′:4,5]pyrazino[2,3-c]pyridazin-8-yl)pyrrolidin-1-yl)butan-2-yl)oxy)isoxazol-5-yl)-3-methylbutanoyl)-N-((S)-1-(4-(4-methylthiazol-5-yl)phenyl)ethyl)pyrrolidine-2-carboxamide], on SMARCA4, the “Dmax % (SM4-HeLa) maximum SMARCA4 degradation within the concentrations tested” value was “A/A (A = Dmax >75%)” and the half-maximal degradation concentration (DC50) is < 100 nM. Besides, at SMARCA2, the “Dmax % (SM2-HeLa) maximum SMARCA2 degradation within the concentrations tested” value was “A/A (A = Dmax >75%)” and the DC50 is < 100 nM.
As to `Cc1ncsc1-c1ccc([C@H](C)NC(=O)[C@@H]2C[C@@H](O)CN2C(=O)[C@@H](c2cc(OCCN3CCC(N4CCN5c6cc(-c7ccccc7O)nnc6NCC5(C)C4)CC3)no2)C(C)C)cc1` (stereo partly drawn) [Example 63, (2S,4R)-4-hydroxy-1-((2R)-2-(3-(2-(4-(2-(2-hydroxyphenyl)-6a-methyl-5,6,6a,7,9,10-hexahydro-8H-pyrazino[1′,2′:4,5]pyrazino[2,3-c]pyridazin-8-yl)piperidin-1-yl)ethoxy)isoxazol-5-yl)-3-methylbutanoyl)-N-((S)-1-(4-(4-methylthiazol-5-yl)phenyl)ethyl)pyrrolidine-2-carboxamide], at SMARCA4, the half-maximal degradation concentration (DC50) is < 100 nM and the Dmax was > 75%. In addition, at SMARCA2, the half-maximal degradation concentration (DC50) is < 100 nM and the Dmax is > 75%.
Regarding `Cc1ncsc1-c1ccc([C@H](C)NC(=O)[C@@H]2C[C@@H](O)CN2C(=O)[C@@H](c2cc(O[C@@H](C)CN3CCC(N4CCN5c6cc(-c7ccccc7O)nnc6NCC5(C)C4)C3)no2)C(C)C)cc1` (stereo partly drawn) [Example 64, (2S,4R)-4-hydroxy-1-((2R)-2-(3-(((2S)-1-(3-(2-(2-hydroxyphenyl)-6a-methyl-5,6,6a,7,9,10-hexahydro-8H-pyrazino[1′,2′:4,5]pyrazino[2,3-c]pyridazin-8-yl)pyrrolidin-1-yl)propan-2-yl)oxy)isoxazol-5-yl)-3-methylbutanoyl)-N-((S)-1-(4-(4-methylthiazol-5-yl)phenyl)ethyl)pyrrolidine-2-carboxamide], on SMARCA4, the DC50 is < 100 nM and the Dmax is > 75%. Besides, at SMARCA2, the DC50 is < 100 nM and the Dmax was > 75%.
As for `Cc1ncsc1-c1ccc([C@H](C)NC(=O)[C@@H]2C[C@@H](O)CN2C(=O)[C@@H](c2cc(OC(C)CN3CCCC(CN4CCN5c6cc(-c7ccccc7O)nnc6NC[C@H]5C4)CC3)no2)C(C)C)cc1` (stereo partly drawn) [Example 68, (2S,4R)-4-hydroxy-1-((2R)-2-(3-((1-(4-(((S)-2-(2-hydroxyphenyl)-5,6,6a,7,9,10-hexahydro-8H-pyrazino[1′,2′:4,5]pyrazino[2,3-c]pyridazin-8-yl)methyl)azepan-1-yl)propan-2-yl)oxy)isoxazol-5-yl)-3-methylbutanoyl)-N-((S)-1-(4-(4-methylthiazol-5-yl)phenyl)ethyl)pyrrolidine-2-carboxamide], on SMARCA4, the DC50 lay within 100 to 1000 nM and the Dmax is > 75%. At SMARCA2, the DC50 is < 100 nM and the Dmax was > 75%.
As for `Cc1ncsc1-c1ccc([C@H](C)NC(=O)[C@@H]2C[C@@H](O)CN2C(=O)[C@@H](c2cc(OCCN3CCC(N4CCN5c6cc(-c7ccccc7O)nnc6NCC5(C)C4)C3)no2)C(C)C)cc1` (stereo partly drawn) [Example 71, (2S,4R)-4-hydroxy-1-((2R)-2-(3-(2-(3-(2-(2-hydroxyphenyl)-6a-methyl-5,6,6a,7,9,10-hexahydro-8H-pyrazino[1′,2′:4,5]pyrazino[2,3-c]pyridazin-8-yl)pyrrolidin-1-yl)ethoxy)isoxazol-5-yl)-3-methylbutanoyl)-N-((S)-1-(4-(4-methylthiazol-5-yl)phenyl)ethyl)pyrrolidine-2-carboxamide], on SMARCA4, the half-maximal degradation concentration (DC50) was < 100 nM and the Dmax is > 75%. On SMARCA2, the DC50 is < 100 nM and the Dmax is > 75%.
Take `Cc1ncsc1-c1ccc([C@H](C)NC(=O)[C@@H]2C[C@@H](O)CN2C(=O)[C@@H](c2cc(OCCN3CCC(N4CCN5c6cc(-c7ccccc7O)nnc6NCC5(C)C4)C3)no2)C(C)C)cc1` (stereo partly drawn) [Example 72, (2S,4R)-4-hydroxy-1-((2R)-2-(3-(2-(3-(2-(2-hydroxyphenyl)-6a-methyl-5,6,6a,7,9,10-hexahydro-8H-pyrazino[1′,2′:4,5]pyrazino[2,3-c]pyridazin-8-yl)pyrrolidin-1-yl)ethoxy)isoxazol-5-yl)-3-methylbutanoyl)-N-((S)-1-(4-(4-methylthiazol-5-yl)phenyl)ethyl)pyrrolidine-2-carboxamide]: the 50% degradation concentration (DC50) on SMARCA4 and at SMARCA2 was < 100 nM in each case.
Turning to `Cc1ncsc1-c1ccc([C@H](C)NC(=O)[C@@H]2C[C@@H](O)CN2C(=O)[C@@H](c2cc(O[C@H](C)C(=O)N3CCC(N4CCN5c6cc(-c7ccccc7O)nnc6NC[C@H]5C4)CC3)no2)C(C)C)cc1` [Example 73, (2S,4R)-4-hydroxy-1-((R)-2-(3-(((R)-1-(4-((S)-2-(2-hydroxyphenyl)-5,6,6a,7,9,10-hexahydro-8H-pyrazino[1′,2′:4,5]pyrazino[2,3-c]pyridazin-8-yl)piperidin-1-yl)-1-oxopropan-2-yl)oxy)isoxazol-5-yl)-3-methylbutanoyl)-N-((S)-1-(4-(4-methylthiazol-5-yl)phenyl)ethyl)pyrrolidine-2-carboxamide], at SMARCA4, the DC50 was in the range of 100 to 1000 nM and the Dmax was in the range of 50 to 75%. Also, on SMARCA2, the DC50 is < 100 nM and the Dmax was > 75%.
Taken in the same sequence, the figures for `Cc1ncsc1-c1ccc([C@H](C)NC(=O)[C@@H]2C[C@@H](O)CN2C(=O)[C@@H](c2cc(OCCN3CCC(N4CCN5c6cc(-c7ccccc7O)nnc6NC[C@H]5C4)CC3)no2)C(C)C)cc1` [Example 76, (2S,4R)-4-hydroxy-1-((R)-2-(3-(2-(4-((S)-2-(2-hydroxyphenyl)-5,6,6a,7,9,10-hexahydro-8H-pyrazino[1′,2′:4,5]pyrazino[2,3-c]pyridazin-8-yl)piperidin-1-yl)ethoxy)isoxazol-5-yl)-3-methylbutanoyl)-N-((S)-1-(4-(4-methylthiazol-5-yl)phenyl)ethyl)pyrrolidine-2-carboxamide] were < 100 nM, > 75%, < 100 nM and > 75%.
With `Cc1ncsc1-c1ccc([C@H](C)NC(=O)[C@@H]2C[C@@H](O)CN2C(=O)[C@@H](c2cc(OCCN3CC=C(CN4CCN5c6cc(-c7ccccc7O)nnc6NC[C@H]5C4)CC3)no2)C(C)C)cc1` [Example 90, (2S,4R)-4-hydroxy-1-((R)-2-(3-(2-(4-(((S)-2-(2-hydroxyphenyl)-5,6,6a,7,9,10-hexahydro-8H-pyrazino[1′,2′:4,5]pyrazino[2,3-c]pyridazin-8-yl)methyl)-3,6-dihydropyridin-1(2H)-yl)ethoxy)isoxazol-5-yl)-3-methylbutanoyl)-N-((S)-1-(4-(4-methylthiazol-5-yl)phenyl)ethyl)pyrrolidine-2-carboxamide], on SMARCA4, the DC50 is < 100 nM and the Dmax is > 75%. In addition, on SMARCA2, the DC50 was < 100 nM and the Dmax is > 75%.
With `Cc1ncsc1-c1ccc([C@H](C)NC(=O)[C@@H]2C[C@@H](O)CN2C(=O)[C@@H](c2cc(CCCN(C)CCN3CCN4c5cc(-c6ccccc6O)nnc5NC[C@H]4C3)no2)C(C)C)cc1` [Example 92, (2S,4R)-4-hydroxy-1-((R)-2-(3-(3-((2-((S)-2-(2-hydroxyphenyl)-5,6,6a,7,9,10-hexahydro-8H-pyrazino[1′,2′:4,5]pyrazino[2,3-c]pyridazin-8-yl)ethyl)(methyl)amino)propyl)isoxazol-5-yl)-3-methylbutanoyl)-N-((S)-1-(4-(4-methylthiazol-5-yl)phenyl)ethyl)pyrrolidine-2-carboxamide], on SMARCA4, the DC50 was ≥ 10000 nM and the Dmax was ≤ 50%. At SMARCA2, the DC50 was < 100 nM and the Dmax is > 75%.

These data come from patent US20240018158A1, “BRM TARGETING COMPOUNDS AND ASSOCIATED METHODS OF USE” (Prelude Therapeutics Incorporated, priority 2020, published 2024).
